From patent US10993935B2, “Compositions and methods for treatment of lung infections” (priority 2018, dated 2021) come the findings set out here.

Each structure is given as a SMILES string. Values after ≈ are worked out from the molar mass of the structure shown. Some results are limits rather than exact numbers.

Data set [1] deals with P. aeruginosa PAO581 (PAO1mucA25). Nature of the data set: NIH drug library screen for inhibition of growth, mucoidy and PalgD-lacZ colour. The class given is cell-based, Pseudomonas aeruginosa.
For data set [2], the system named is Acinetobacter baumannii. Put plainly: RFX MIC testing against MDR clinical isolates. It counts as cell-based. As for the experimental part: (§1) Minimum Inhibitory Concentration Testing. MIC testing was performed as previously described. Briefly, overnight culture of bacteria was diluted in 1:100 of a 0.5 McFarland standard as inoculum. The same number of cells was grown in LB broth containing serial, two-fold dilutions of rifaximin (RFX) or tobramycin (TOB). Growth was measured via optical density (OD) at 600 nm after 24 h incubation at 37° C. Concentrations of antibiotic required for inhibition of 50% and 90% of strains were determined.
(§2) Because RFX was not a traditional treatment for P. aeruginosa infections, it was first tested whether RFX was effective in vitro against P. aeruginosa and other bacterial pathogens seen in CF. Since RFX is not used for treatment of ventilator-associated pneumonia (VAP), it was thought the isolates of tracheal aspirates from VAP patients in the ICU may be sensitive to RFX. To determine the susceptibility to RFX, resistant isolates from the Cabell Huntington Hospital were chosen to measure the minimum inhibitory concentrations (MIC) for RFX (Table 3).
(§3) MIC50 and MIC90 are the concentrations of RFX required for the growth inhibition of 50% and 90% of strains, respectively.

The subject of data set [3] is Staphylococcus aureus. Nature of the data set: RFX MIC testing against MDR clinical isolates. It counts as cell-based. As for the experimental part:
as §1, §2, §3

The test system of data set [4] is Stenotrophomonas maltophilia. Put plainly: RFX MIC testing against MDR clinical isolates. The class given is cell-based. How it is done: as §1, §2, §3
The subject of data set [5] is clinical mucoid isolate from a CF patient. Put plainly: Further test of screen hits on a clinical mucoid isolate. It counts as cell-based, Pseudomonas aeruginosa. As to conditions: compared with the other screen hits of Table 2.
A short description of data set [6]: Solubility of RFX in nebulization solvents. The class given is physicochemical. How it is done:
As treatment for traveler's diarrhea, RFX is a drug optimized for oral use. For RFX to be useful as a treatment for CF patients, it was determined whether RFX could be delivered to the lungs through nebulization. Nebulizing RFX was initially unsuccessful and more difficult than presumed. […] RFX was not soluble in water-based solutions, but was soluble in dimethyl-sulfoxide (DMSO) and ETOH (ethanol) in small volumes. […] However, 100% DMSO could be used to retain RFX in solution and deliver to the lungs as noted by HPLC data.

Data set [7] in a line: Adverse effects after nebulization in mice. The class given is in vivo, C57BL/6 mice. The settings on record: mouse, in vivo. How it is done:
Drug Nebulization. C57BL/6 mice (n=8) were first exposed to 5 mL DMSO for 10 minutes to determine any adverse effects that may occur from using DMSO. Mice (n=16) were then exposed to TOB in 0.225% saline or RFX in DMSO via nebulization until the 5 mL drug mixture was depleted—typically 10-15 minutes. Nebulization was conducted using the pressure-based nebulizer and chamber purchased from Kent Scientific (Torrington, Conn.). TOB was nebulized at concentrations of 100 mg (n=4) or 400 mg (n=4) in 5 mL of 0.225% saline. RFX was nebulized at concentrations of 100 mg (n=4) or 400 mg (n=4) in 5 ml of 100% dimethyl sulfoxide. Mice were sacrificed immediately after nebulization via CO2 chamber. Lungs were then collected and homogenized. TOB concentrations were measured using ELISA. RFX concentrations were measured via HPLC.
The potential adverse effects of using DMSO were first assessed by nebulizing DMSO alone to a group of C57BL/6 mice (n=8). This type of mice was used due to their natural resistance against infection based on our previous studies. […] To determine the dosage of each drug received by the mice, the lungs were homogenized and drug concentrations of TOB and RFX were determined via ELISA and HPLC, respectively. […] The droplet size for both TOB and RFX were determined to be identical with the average droplet size for TOB and RFX being 5.07 μm and 5.02 μm, respectively. […]

Setting [8] is: Stenotrophomonas maltophilia, 1 strain.

The term MIC50 denotes an inhibitory concentration at the 50% level, which refers to growth in some studies and to a panel of isolates in others. The MIC90 is an inhibitory concentration at the 90% level, which refers to growth in some studies and to a panel of isolates in others. For the compound `CO[C@H]1/C=C/O[C@@]2(C)Oc3c(C)c(O)c4c(O)c(c5c(nc6cc(C)ccn65)c4c3C2=O)NC(=O)/C(C)=C\C=C\[C@H](C)[C@H](O)[C@@H](C)[C@@H](O)[C@@H](C)[C@H](OC(C)=O)[C@@H]1C` [RFX, rifaximin], the “Growth 2 μM” value in data set [1] (drug at 2 μM, PAO581 on PIA) is on record as “Reduced”. Further, the “Mucoidy 2 μM” value in data set [1] (drug at 2 μM, PAO581 with pLP170-PalgD-lacZ on PIA + X-gal) is “Reduced”. For the same compound, the “Color 2 μM” value in data set [1] (drug at 2 μM, X-gal colour of PalgD-lacZ reporter, 'Light' wraps to 'Light Blue') is given as “Clear”. Besides, the “Growth 10 μM” value in data set [1] (drug at 10 μM, PAO581 on PIA) is listed as “Inhibited”. The “Growth 50 μM” value in data set [1] (drug at 50 μM, PAO581 on PIA) was “Inhibited”. In addition, the MIC50 in data set [2] (Acinetobacter baumannii, 9 strains, concentration inhibiting growth of 50% of strains) is below 0.5 µg/mL; in data set [3] (22 strains, concentration inhibiting growth of 50% of strains) it was 2 µg/mL (≈ 2.54 µM); in data set [3] (MDR S. aureus including MRSA), 2 µg/mL (≈ 2.54 µM); in data set [4] (setting [8]) it was 16 µg/mL (≈ 20.4 µM). The MIC90 was below 0.5 µg/mL in data set [2] (Acinetobacter baumannii, 9 strains, concentration inhibiting growth of 90% of strains); 16 µg/mL (≈ 20.4 µM) in data set [3] (22 strains, concentration inhibiting growth of 90% of strains); 16 µg/mL (≈ 20.4 µM) in data set [3] (MDR S. aureus including MRSA); 16 µg/mL (≈ 20.4 µM) in data set [4] (setting [8]). Moreover, the “growth of clinical isolates” value was “effectively inhibit the growth” in data set [2] (clinical isolates, in words) and “effectively inhibit the growth” in data set [4] (clinical isolates, in words). Moreover, the “inhibition of growth and mucoidy” value in data set [5] was “most effective drug to inhibit the growth and mucoidy”. Moreover, the solubility result in data set [6] (in 20%, 40%, and 80% DMSO in PBS, came out of solution on nebulization) was “partially or fully dissolve”; in data set [6] (in DMSO), “readily soluble”; in data set [6] (in PBS or saline), “did not dissolve”; in data set [6] (in dimethyl-sulfoxide (DMSO) and ETOH (ethanol) in small volumes) it was “soluble”; in data set [6] (in water), “only sparingly soluble”; in data set [6] (in water-based solutions), “not soluble”. The adverse effects entry in data set [7] is recorded as “no adverse effects”.
